Values quoted from earlier work in patent US8415326B2, “Pharmaceutical composition comprising chito-oligomers” (Genis Ehf., priority 2001, dated 2013).

Key:
[1] = tested on: activated macrophages; details: reference [23]
[2] = tested on: normal human articular chondrocytes; details: reference [24]
[3] = tested on: mesothelial cells and fibroblasts; details: reference [11]

| SMILES | effect on nitric oxide (NO) production by activated macrophages [1] | effect on NO production in normal human articular chondrocytes [2] | synthesis of hyaluronan [3] |
| --- | --- | --- | --- |
| CC(=O)N[C@H]1[C@H](O[C@H]2[C@H](O)[C@@H](NC(C)=O)[C@H](O[C@H]3[C@H](O)[C@@H](NC(C)=O)C(O)O[C@@H]3CO)O[C@@H]2CO)O[C@H](CO)[C@@H](O[C@@H]2O[C@H](CO)[C@@H](O[C@@H]3O[C@H](CO)[C@@H](O[C@@H]4O[C@H](CO)[C@@H](O)[C@H](O)[C@H]4NC(C)=O)[C@H](O)[C@H]3NC(C)=O)[C@H](O)[C@H]2NC(C)=O)[C@@H]1O (some centres unmarked) [Hexa-N-acetylchitohexaose] | inhibited NO production but with less potency |  |  |
| CC(=O)N[C@H]1[C@H](O[C@H]2[C@H](O)[C@@H](NC(C)=O)[C@H](O[C@H]3[C@H](O)[C@@H](NC(C)=O)C(O)O[C@@H]3CO)O[C@@H]2CO)O[C@H](CO)[C@@H](O[C@@H]2O[C@H](CO)[C@@H](O[C@@H]3O[C@H](CO)[C@@H](O)[C@H](O)[C@H]3NC(C)=O)[C@H](O)[C@H]2NC(C)=O)[C@@H]1O (some centres unmarked) [penta-N-acetylchitopentaose] | inhibited NO production but with less potency |  |  |
| N[C@H]1C(O)O[C@H](CO)[C@@H](O)[C@@H]1O (some centres unmarked) [glucosamine] |  | inhibit NO production |  |
| CC(=O)N[C@H]1C(O)O[C@H](CO)[C@@H](O)[C@@H]1O (some centres unmarked) [N-acetylglucosamine] |  | inhibit NO production | increases the synthesis of hyaluronan |
